Calls of active or inactive are those of the source.
Experiments:
Cholinesterase [1] = target: T1, Cholinesterase (Equus caballus, UniProt P81908); experiment: Inhibition of equine serum BuChE using butyrylthiocholine iodide as substrate preincubated with enzyme for 20 mins followed by substrate addition by Ellman's method
[2] = target: Acetylcholinesterase (Electrophorus electricus) (UniProt O42275); experiment: Inhibition of electric eel AChE at 20 uM using acetylthiocholine iodide as substrate preincubated with enzyme for 20 mins followed by substrate addition by Ellman's method relative to control
[3] = Octanol-PBS buffer partition coefficient, log P of the compound incubated for 24 hrs measured at pH 7.4 by shake-flask method; format: physicochemical
[4] = target: Cholinesterase (Equus caballus) (UniProt P81908); experiment: Reversible inhibition of equine serum BChE at 0.4 to 1 uM using varying levels of butyrylcholine iodide as substrate
Acetylcholinesterase = Acetylcholinesterase (Electrophorus electricus, UniProt O42275); experiment: Inhibition of electric eel AChE using acetylthiocholine iodide as substrate preincubated with enzyme for 20 mins followed by substrate addition by Ellman's method
[5] = Cytotoxicity against human HepG2 cells assessed as cell viability at 5 to 50 uM measured after 24 hrs by MTT assay; format: cell-based; conditions: read-out: Activity
[6] = Cytotoxicity against rat PC12 cells assessed as cell viability at 5 to 50 uM measured after 24 hrs by MTT assay; format: cell-based, PC-12; conditions: read-out: Activity
Cholinesterase [7] = target: T1, Cholinesterase; experiment: Inhibition of equine serum BChE using varying levels of butyrylthiocholine iodide as substrate by Line weaver Burk reciprocal plot analysis
PC-12 = experiment: Neuroprotective activity against H2O2-induced cytotoxicity in rat PC12 cells assessed as increase in cell viability at 10 to 25 uM pretreated for 3 hrs followed by H2O2 stimulation in continuous presence of compound for 24 hrs by MTT assay relative to control; format: functional
[8] = target: Cholinesterase (Equus caballus) (UniProt P81908); experiment: Mixed inhibition of equine serum BChE assessed as decrease in Vmax at 0.5 to 2 uM using varying levels of butyrylthiocholine iodide as substrate by Line weaver Burk reciprocal plot analysis
[9] = target: Cholinesterase (Equus caballus) (UniProt P81908); experiment: Mixed inhibition of equine serum BChE assessed as increase in substrate Km at 0.5 to 2 uM using varying levels of butyrylthiocholine iodide as substrate by Line weaver Burk reciprocal plot analysis
[10] = target: Cholinesterase (Equus caballus) (UniProt P81908); experiment: Mixed inhibition of equine serum BChE assessed as decrease in Vmax at 1 to 5 uM using varying levels of butyrylthiocholine iodide as substrate by Line weaver Burk reciprocal plot analysis
[11] = target: Cholinesterase (Equus caballus) (UniProt P81908); experiment: Mixed inhibition of equine serum BChE assessed as increase in substrate Km at 1 to 5 uM using varying levels of butyrylthiocholine iodide as substrate by Line weaver Burk reciprocal plot analysis
[12] = target: Cholinesterase (Equus caballus) (UniProt P81908); experiment: Non-competitive inhibition of equine serum BChE at 1 to 5 uM using varying levels of butyrylcholine iodide as substrate by Line weaver Burk reciprocal plot analysis

Chain of Acetylcholinesterase (Electrophorus electricus) (O42275 24-633 limits assumed): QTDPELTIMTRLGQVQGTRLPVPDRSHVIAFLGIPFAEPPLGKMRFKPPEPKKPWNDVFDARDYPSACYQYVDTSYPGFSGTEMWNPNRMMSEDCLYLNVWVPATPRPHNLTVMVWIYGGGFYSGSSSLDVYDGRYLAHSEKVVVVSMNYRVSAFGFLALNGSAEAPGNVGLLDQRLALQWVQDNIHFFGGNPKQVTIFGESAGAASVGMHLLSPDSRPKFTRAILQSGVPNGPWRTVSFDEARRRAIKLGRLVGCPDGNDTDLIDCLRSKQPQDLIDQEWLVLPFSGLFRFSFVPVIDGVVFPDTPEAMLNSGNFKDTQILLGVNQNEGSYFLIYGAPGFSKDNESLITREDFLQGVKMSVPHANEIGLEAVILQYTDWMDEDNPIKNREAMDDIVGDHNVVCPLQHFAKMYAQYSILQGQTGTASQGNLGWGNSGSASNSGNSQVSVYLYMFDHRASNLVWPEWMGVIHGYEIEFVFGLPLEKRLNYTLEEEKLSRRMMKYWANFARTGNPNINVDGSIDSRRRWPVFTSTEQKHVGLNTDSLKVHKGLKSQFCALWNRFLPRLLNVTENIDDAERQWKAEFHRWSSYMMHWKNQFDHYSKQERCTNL
Chain of Cholinesterase (Equus caballus) (P81908 whole entry): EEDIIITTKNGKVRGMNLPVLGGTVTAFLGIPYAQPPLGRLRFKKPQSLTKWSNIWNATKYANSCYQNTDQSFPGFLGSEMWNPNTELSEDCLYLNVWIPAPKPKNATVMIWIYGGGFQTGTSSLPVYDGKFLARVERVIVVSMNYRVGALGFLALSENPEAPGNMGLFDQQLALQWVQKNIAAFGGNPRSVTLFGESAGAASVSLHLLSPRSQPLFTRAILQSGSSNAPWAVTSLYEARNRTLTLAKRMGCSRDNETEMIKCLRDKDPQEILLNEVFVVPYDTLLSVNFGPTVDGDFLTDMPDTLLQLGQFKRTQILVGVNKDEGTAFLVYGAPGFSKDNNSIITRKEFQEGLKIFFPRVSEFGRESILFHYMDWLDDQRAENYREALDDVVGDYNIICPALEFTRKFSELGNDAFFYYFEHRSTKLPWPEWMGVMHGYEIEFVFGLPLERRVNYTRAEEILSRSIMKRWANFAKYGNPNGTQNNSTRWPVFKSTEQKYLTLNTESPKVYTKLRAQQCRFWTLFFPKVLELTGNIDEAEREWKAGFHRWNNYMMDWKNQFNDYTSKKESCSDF
T1 sequence (P81908 whole entry): as above
Chain of Acetylcholinesterase (O42275 whole entry): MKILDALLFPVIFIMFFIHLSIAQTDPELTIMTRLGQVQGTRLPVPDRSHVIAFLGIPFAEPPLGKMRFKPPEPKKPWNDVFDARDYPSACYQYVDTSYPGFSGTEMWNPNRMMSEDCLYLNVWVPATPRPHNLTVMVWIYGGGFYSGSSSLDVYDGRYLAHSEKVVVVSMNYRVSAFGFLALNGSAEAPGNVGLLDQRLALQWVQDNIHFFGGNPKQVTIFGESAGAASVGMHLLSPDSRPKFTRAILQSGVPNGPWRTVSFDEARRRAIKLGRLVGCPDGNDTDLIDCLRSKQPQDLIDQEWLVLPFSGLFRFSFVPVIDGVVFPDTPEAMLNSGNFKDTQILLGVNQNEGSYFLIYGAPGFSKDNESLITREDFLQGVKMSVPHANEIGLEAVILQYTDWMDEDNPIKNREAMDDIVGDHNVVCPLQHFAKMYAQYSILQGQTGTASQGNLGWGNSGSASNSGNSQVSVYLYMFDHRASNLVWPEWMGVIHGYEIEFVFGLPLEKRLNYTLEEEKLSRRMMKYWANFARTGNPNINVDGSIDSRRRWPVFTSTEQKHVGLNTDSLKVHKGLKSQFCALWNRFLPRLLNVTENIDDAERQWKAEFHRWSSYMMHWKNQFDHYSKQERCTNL

SMILES | IC50 (Cholinesterase [1]) | inhibition [2] | logD at 24 h [3] | other results
O=S1(=O)CCc2c(C3CC3)nn(-c3ccccc3F)c2O1 | 0.199 µM | inactive | 2.09 | inhibition [4]: Active
CC1=NN2C(=O)Oc3c(Cl)cc(Cl)cc3C2C1 (configuration not stated) |  |  |  | IC50 (Acetylcholinesterase): > 20 µM
COc1ccc(-c2nn(-c3ccccc3F)c3c2CCS(=O)(=O)O3)cc1 | 0.46 µM | inactive | 2.62 | viability at 24 h, 50 µM [5]: > 90%; viability at 24 h, up to 50 µM [6]: > 90%; Ki (Cholinesterase [7]): 0.145 µM; Activity (PC-12): >70%; inhibition [4]: Active; inhibition [8]: Active; inhibition [9]: Active
COc1ccc(-c2nn(-c3ccccc3Cl)c3c2CCS(=O)(=O)O3)cc1 | 0.42 µM | inactive | 3.04 | viability at 24 h, 50 µM [5]: > 90%; viability at 24 h, up to 50 µM [6]: > 90%; Ki (Cholinesterase [7]): 0.06 µM; Activity (PC-12): >70%; inhibition [10]: Active; inhibition [11]: Active; inhibition [12]: Active
Cc1cc(C2CS(=O)(=O)Oc3c2c(C2CC2)nn3-c2ccccc2Cl)ccc1Br (configuration not stated) | 3.77 µM | inactive | 2.53 | 
O=S1(=O)CC(c2ccc(F)cc2)c2c(C3CC3)nn(-c3ccccc3Cl)c2O1 (configuration not stated) | 6.02 µM | inactive | 2.04 | 
Cc1nn(-c2ccccc2)c2c1C(/C=C/c1cccc(C#N)c1)CS(=O)(=O)O2 (configuration not stated) | 10.6 µM |  |  | IC50 (Acetylcholinesterase): 16.3 µM
COc1cccc(C2CS(=O)(=O)Oc3c2c(C2CC2)nn3-c2ccccc2F)c1 (configuration not stated) | 3.47 µM | inactive | 2.01 | 
O=S1(=O)CC(c2cccc(C(F)(F)F)c2)c2c(C3CC3)nn(-c3cccc(F)c3)c2O1 (configuration not stated) | 4.62 µM | inactive | 2.73 | 
Cc1nn(-c2ccccc2F)c2c1C(c1ccc(F)cc1)CS(=O)(=O)O2 (configuration not stated) | 6.1 µM | inactive | 2.13 | 
